Measurements published in US7468393B2, “Diarylsulfones as 5-HT2A antagonists” (Merck Sharp & Dohme Ltd., priority 2004, dated 2008).

melting point: 75 °C
Compound: C[C@H](O)c1ccccc1S(=O)(=O)c1ccc(/C=C/c2ccc(F)cc2)cc1 [Example 135, (1S)-1-[2-({4-[(E)-2-(4-fluorophenyl)vinyl]phenyl}sulfonyl)phenyl]ethanol]
